The record followed here is ChEMBL document CHEMBL1131641, “Indolequinone antitumor agents: relationship between quinone structure and rate of metabolism by recombinant human NQO1” (Bioorg Med Chem Lett, 1998).

The species entered for one data set is Homo sapiens. Kind of data set: Metabolism (NADH oxidation) by recombinant human NAD(P)H: quinone oxidoreductase (NQO1) is evaluated. Format: ADME.
The nature of data set [1]: Selectivity ratio against NSCLC H460 and NSCLC H596 was evaluated. In kind it is functional. Further details: reference not given here.
Another data set relates to NCI-H596. The data set can be described thus: Cytotoxic activity against non-small cell lung cancer cell line (NSCLC) H596 was determined by using MTT colorimetric assay. In kind it is functional, cell-based. As to conditions: Homo sapiens.
A further data set has as its system NCI-H460. The data set can be described thus: Cytotoxic activity against non-small cell lung cancer cell line (NSCLC) H460 was determined by using MTT colorimetric assay. Conditions: Homo sapiens. Format: functional, cell-based.

Regarding `Cc1cc2c(n1C)C(=O)C=C(N1CC1)C2=O`, the Metabolism in the data set listed under Homo sapiens is 11.6 µM/min/mg. The Selectivity ratio in data set [1] was > 26.

As to `Cc1c(CO)c2c(n1C)C(=O)C=C(N1CCC1)C2=O`, the Metabolism in the data set listed under Homo sapiens came out at 0.22 µM/min/mg.

Regarding `C/N=C1\C=C(O)c2c(c(CO)c(C)n2C)C1=O`, the Metabolism in the data set listed under Homo sapiens stood at 0.49 µM/min/mg.

`Cc1c(CO)c2c(n1C)C(=O)C=C(N(C)C)C2=O`: the Metabolism in the data set listed under Homo sapiens came to 0.46 µM/min/mg.

`COC1=CC(=O)c2c(c(C=O)c(C)n2C)C1=O`: the Metabolism in the data set filed under Homo sapiens was found to be 8.78 µM/min/mg.

On to `CCOC(=O)c1c2c(n(C)c1C)C(=O)C=C(OC)C2=O`, for which the Metabolism in the data set listed under Homo sapiens amounted to 14.3 µM/min/mg.

On to `Cc1c(COC(N)=O)c2c(n1C)C(=O)C=C(N1CC1)C2=O`, for which the Selectivity ratio in data set [1] was determined as 1.6.

On to `Cc1c(CO)c2c(n1C)C(=O)C=C(N1CC1)C2=O`, for which, in the data set listed under Homo sapiens, the Metabolism turned out to be 3.35 µM/min/mg. Moreover, in data set [1], the Selectivity ratio turned out to be 510.

Regarding `COC1=CC(=O)c2c(c(COC(N)=O)c(C)n2C)C1=O`, in data set [1], the Selectivity ratio came out at 0.3.

In the case of `Cc1c(CO)c2c(n1C)C(=O)C=C(CN1CC1)C2=O`, the Metabolism in the data set listed under Homo sapiens was found to be 2.01 µM/min/mg. Moreover, the results for the IC50 in the data set with NCI-H596 and with NCI-H460 were > 25000 nM and 110 nM, respectively. Besides, the Selectivity ratio in data set [1] is > 220.

For `COC1=CC(=O)c2c(cc(C)n2C)C1=O`, the Metabolism in the data set listed under Homo sapiens amounted to 5.31 µM/min/mg. In addition, the Selectivity ratio in data set [1] was determined as 1.

As to `COCC/N=C1\C=C(O)c2c(c(CO)c(C)n2C)C1=O`, the Metabolism in the data set listed under Homo sapiens stood at 0.1 µM/min/mg.

Regarding `Cc1c(CO)c2c(n1C)C(=O)C=C(N1CCOCC1)C2=O`, in the data set filed under Homo sapiens, the Metabolism is 0.69 µM/min/mg.

For `COC1=CC(=O)c2c(c(CO)c(C)n2C)C1=O`, the Metabolism in the data set listed under Homo sapiens was 1.25 µM/min/mg. In data set [1], the Selectivity ratio turned out to be 1.

As usually defined, the IC50 is the concentration needed to halve the response being measured.
